Test results taken from patent publication US9512084B2, “Amino pyrimidine derivatives” (Novartis AG, priority 2013, dated 2016).

Experiments:
[1] = biological target: Btk (Rattus norvegicus, UniProt Q5S255); test: Inhibition of Btk activity in blood (in vitro B cell activation assay, CD86, rat whole blood); type: cell-based; conditions: Lewis rat whole blood diluted to 50%, anti-rat IgM + rat IL-4, 24 hours, CD86 on CD45RA positive B cells
Method: Alternatively, the inhibitory activity of the present compounds in blood was assessed in the following in vitro B cell activation assay. Whole blood was collected from the abdominal aorta of anaesthetized adult male Lewis rats and was anticoagulated with 100 U/ml sodium heparin. Blood was then diluted to 50% with high glucose DMEM (Amimed) supplemented with […] penicillin, […], 2 mM L-glutamin, 50 mg/ml dextran 40 and 5% FCS (Fetaclone I, Gibco). Then, 190 μl prediluted blood was mixed in 96 well U-bottomed microtiter plates (Nunc) with 10 μl of serial dilutions of test compounds in DMSO. […] Activation of B cells was measured by flow cytometry after staining for the B cell subset with PE-Cy5-labeled anti-ratCD45RA (Beckton-Dickinson) and for the activation marker CD86 (PE-labeled anti-rat CD86 (Beckton-Dickinson). All staining procedures were performed at RT for 30 min in the dark in 96-deep well V-bottomed microtiter plates (Corning) with BD Lysing Solution (Beckton-Dickinson).
Cytometric data was acquired on a FACScalibur flow cytometer (BD Biosciences) and the subpopulation of lymphocytes were gated according to size and granularity and further analyzed for expression of CD45RA and the activation markers. Data for the inhibition of B cell activation were calculated from the percentage of cells positively stained for activation markers within the CD45RA positive population.

[2] = biological target: full-length human recombinant BTK (Homo sapiens (Human), UniProt Q06187); test: Inhibition of Btk enzymatic activity (biochemical enzyme assay, Caliper); conditions: 6.4 nM enzyme solution, 164 μM ATP solution, 30° C., 60 minutes
full-length human recombinant BTK, sequence (Q06187 whole entry): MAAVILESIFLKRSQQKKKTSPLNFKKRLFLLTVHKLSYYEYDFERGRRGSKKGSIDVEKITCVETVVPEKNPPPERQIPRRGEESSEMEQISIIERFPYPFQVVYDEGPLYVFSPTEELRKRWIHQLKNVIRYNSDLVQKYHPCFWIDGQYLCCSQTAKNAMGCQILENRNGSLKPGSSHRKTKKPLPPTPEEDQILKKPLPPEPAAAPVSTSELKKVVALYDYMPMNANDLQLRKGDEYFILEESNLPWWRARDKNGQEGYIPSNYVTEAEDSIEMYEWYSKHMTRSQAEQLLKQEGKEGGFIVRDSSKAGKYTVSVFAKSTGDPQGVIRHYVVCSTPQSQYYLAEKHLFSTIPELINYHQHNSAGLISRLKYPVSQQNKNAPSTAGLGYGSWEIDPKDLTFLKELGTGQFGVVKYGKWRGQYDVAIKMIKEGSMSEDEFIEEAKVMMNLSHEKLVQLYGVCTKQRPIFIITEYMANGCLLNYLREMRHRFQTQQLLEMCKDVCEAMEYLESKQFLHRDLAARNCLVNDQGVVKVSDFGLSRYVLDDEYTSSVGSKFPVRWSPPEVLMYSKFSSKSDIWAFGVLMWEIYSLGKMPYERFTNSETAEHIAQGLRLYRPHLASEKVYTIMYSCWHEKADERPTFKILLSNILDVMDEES
Method: The inhibitory activity of the present compounds against Btk was assessed in a biochemical enzyme assay. […] The assay plates were prepared by addition of 50 nl per well of compound solution in 90% DMSO. […] Kinase reactions were analyzed on a Caliper LC3000 workstation by separating phosphorylated and unphosphorylated peptides and kinase activities were calculated from the amounts of newly formed phospho-peptide.

Btk, sequence (Q5S255 1-660): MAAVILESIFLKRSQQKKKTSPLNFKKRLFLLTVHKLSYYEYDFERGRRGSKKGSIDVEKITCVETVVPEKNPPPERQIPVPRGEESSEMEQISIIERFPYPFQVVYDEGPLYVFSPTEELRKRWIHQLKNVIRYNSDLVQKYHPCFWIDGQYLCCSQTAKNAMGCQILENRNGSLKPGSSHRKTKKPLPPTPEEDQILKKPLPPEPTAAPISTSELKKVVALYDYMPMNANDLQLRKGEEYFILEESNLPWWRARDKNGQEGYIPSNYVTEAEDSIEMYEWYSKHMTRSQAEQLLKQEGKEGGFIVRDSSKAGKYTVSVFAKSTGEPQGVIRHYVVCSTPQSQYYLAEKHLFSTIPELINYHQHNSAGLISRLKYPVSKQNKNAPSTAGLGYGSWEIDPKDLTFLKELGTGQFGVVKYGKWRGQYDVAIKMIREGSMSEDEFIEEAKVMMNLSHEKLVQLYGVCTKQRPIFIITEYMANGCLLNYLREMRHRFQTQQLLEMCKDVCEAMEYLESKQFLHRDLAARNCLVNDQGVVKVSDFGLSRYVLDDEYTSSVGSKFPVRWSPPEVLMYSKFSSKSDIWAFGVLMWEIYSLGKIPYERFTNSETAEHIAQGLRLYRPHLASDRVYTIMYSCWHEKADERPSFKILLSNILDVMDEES

SMILES | IC50 [1] | IC50 [2]
C=CC(=O)N(C)CCOc1c(N)ncnc1-c1cc(F)cc(N2CCc3cc(C4CC4)ccc3C2=O)c1CO [Example 25, N-(2-((4-Amino-6-(3-(6-cyclopropyl-1-oxo-3,4-dihydroisoquinolin-2(1H)-yl)-5-fluoro-2-(hydroxymethyl)phenyl)pyrimidin-5-yl)oxy)ethyl)-N-methylacrylamide] | 65 nM | 1 nM
C=CC(=O)N(CCF)CCOc1c(N)ncnc1-c1cc(F)cc(NC(=O)c2ccc(C3CC3)cc2F)c1C [Example 15, N-(3-(6-Amino-5-(2-(N-(2-fluoroethyl)acrylamido)ethoxy)pyrimidin-4-yl)-5-fluoro-2-methylphenyl)-4-cyclopropyl-2-fluorobenzamide] | 29 nM | 1 nM
C=CC(=O)N1CC[C@H]1COc1c(N)ncnc1-c1cc(F)cc(N2CCc3cc(C4CC4)ccc3C2=O)c1CO [Example 35, (S)-2-(3-(5-((1-Acryloylazetidin-2-yl)methoxy)-6-aminopyrimidin-4-yl)-5-fluoro-2-(hydroxymethyl)phenyl)-6-cyclopropyl-3,4-dihydroisoquinolin-1(2H)-one] | 72 nM | 2 nM

Further lines, results first:

IC50 [1] | IC50 [2] | SMILES
57 nM | 1 nM | CC#CC(=O)N1CCC[C@H]1COc1c(N)ncnc1-c1cc(F)cc(NC(=O)c2ccc(C3CC3)cc2F)c1C [Example 23, (S)—N-(3-(6-Amino-5-((1-(but-2-ynoyl)pyrrolidin-2-yl)methoxy)pyrimidin-4-yl)-5-fluoro-2-methylphenyl)-4-cyclopropyl-2-fluorobenzamide]
968 nM | 32 nM | C=CC(=O)N1CCC[C@@H](COc2c(N)ncnc2-c2cc(F)cc(NC(=O)c3ccc(C4CC4)cc3F)c2C)C1 [Example 37, (R)—N-(3-(5-((1-Acryloylpiperidin-3-yl)methoxy)-6-aminopyrimidin-4-yl)-5-fluoro-2-methylphenyl)-4-cyclopropyl-2-fluorobenzamide]
